Test results: patent US8133998B2, “Bicyclic pyrimidine derivatives as calcium channel blockers” (Zalicus Pharmaceuticals, Ltd., priority 2007, dated 2012)

Legend:
[1] = target: T1, human α1H T-type channels (Homo sapiens, UniProt O95180); experiment: T-type calcium channel block, whole cell patch clamp in HEK cells; type: cell-based; conditions: HEK cells stably expressing human α1H; measured at 1 μM drug; mainly non-inactivated protocol
T1 construct: expressed in transfected cells; host or cells: HEK 293
Method: (§1) T-type calcium channel blocking activity was assayed in human embryonic kidney cells, HEK 293, stably transfected with the T-type calcium channel subunits. Briefly, cells were cultured in Dulbecco's modified eagle medium (DMEM) supplemented with 10% fetal bovine serum, 200 U/ml penicillin and 0.2 mg/ml streptomycin at 37° C. with 5% CO2. At 85% confluency cells were split with 0.25% trypsin/1 mM EDTA and plated at 10% confluency on glass coverslips. At 12 hours the medium was replaced and the cells stably transfected using a standard calcium phosphate protocol and the appropriate calcium channel cDNA's. Fresh DMEM was supplied and the cells transferred to 28° C./5% CO2. Cells were incubated for 1 to 2 days prior to whole cell recording.
(§2) Standard patch-clamp techniques were employed to identify blockers of T-type currents. Briefly, previously described HEK cell lines stably expressing human α1G, α1H and α1I T-type channels were used for all the recordings (passage #: 4-20, 37° C., 5% CO2). Whole cell patch clamp experiments were performed using an Axopatch 200B amplifier (Axon Instruments, Burlingame, Calif.) linked to a personal computer equipped with pCLAMP software. Data were analyzed using Clampfit (Axon Instruments) and SigmaPlot 4.0 (Jandel Scientific). To obtain T-type currents, plastic dishes containing semi-confluent cells were positioned on the stage of a ZEISS AXIOVERT S100 microscope after replacing the culture medium with external solution (see below). Whole-cell patches were obtained using pipettes (borosilicate glass with filament, O.D.: 1.5 mm, I.D.: 0.86 mm, 10 cm length), fabricated on a SUTTER P-97 puller with resistance values of ˜5 MΩ (see below for internal solution).
(§3) In the non-inactivating protocol, the holding potential is set at −110 mV and with a pre-pulse at −100 mV for 1 second prior to the test pulse at −40 mV for 50 ms. In the inactivation protocol, the pre-pulse is at approximately −85 mV for 1 second, which inactivates about 15% of the T-type channels.
(§4) Test compounds were dissolved in external solution, 0.1-0.01% DMSO. After ˜10 min rest, they were applied by gravity close to the cell using a WPI microfil tubing. The “non-inactivated” pre-pulse was used to examine the resting block of a compound. The “inactivated” protocol was employed to study voltage-dependent block. However, the initial data shown below were mainly obtained using the non-inactivated protocol only. Kd values are shown for various compounds of the invention in Table 4 measured at 1 μM for the drug of interest except for compound 18 which was measured at 200 nM.

[2] = target: T2, human α1G T-type channels (Homo sapiens, UniProt O43497); experiment: as above; type: cell-based; conditions: HEK cells stably expressing human α1G; measured at 1 μM drug; mainly non-inactivated protocol
T2 construct: expressed in transfected cells; host or cells: HEK 293
Method: as §1, §2, §3, §4

[3] = target: T3, human α1I T-type channels (Homo sapiens, UniProt Q9P0X4); experiment: as above; type: cell-based; conditions: HEK cells stably expressing human α1I; measured at 1 μM drug; mainly non-inactivated protocol
T3 construct: expressed in transfected cells; host or cells: HEK 293
Method: as §1, §2, §3, §4

[4] = test system: spinal nerve ligation model of neuropathic pain; conditions: rats; cited from earlier work
[5] = test system: T-type over L-type channels; conditions: cited from earlier work

T3 sequence (Q9P0X4 whole entry): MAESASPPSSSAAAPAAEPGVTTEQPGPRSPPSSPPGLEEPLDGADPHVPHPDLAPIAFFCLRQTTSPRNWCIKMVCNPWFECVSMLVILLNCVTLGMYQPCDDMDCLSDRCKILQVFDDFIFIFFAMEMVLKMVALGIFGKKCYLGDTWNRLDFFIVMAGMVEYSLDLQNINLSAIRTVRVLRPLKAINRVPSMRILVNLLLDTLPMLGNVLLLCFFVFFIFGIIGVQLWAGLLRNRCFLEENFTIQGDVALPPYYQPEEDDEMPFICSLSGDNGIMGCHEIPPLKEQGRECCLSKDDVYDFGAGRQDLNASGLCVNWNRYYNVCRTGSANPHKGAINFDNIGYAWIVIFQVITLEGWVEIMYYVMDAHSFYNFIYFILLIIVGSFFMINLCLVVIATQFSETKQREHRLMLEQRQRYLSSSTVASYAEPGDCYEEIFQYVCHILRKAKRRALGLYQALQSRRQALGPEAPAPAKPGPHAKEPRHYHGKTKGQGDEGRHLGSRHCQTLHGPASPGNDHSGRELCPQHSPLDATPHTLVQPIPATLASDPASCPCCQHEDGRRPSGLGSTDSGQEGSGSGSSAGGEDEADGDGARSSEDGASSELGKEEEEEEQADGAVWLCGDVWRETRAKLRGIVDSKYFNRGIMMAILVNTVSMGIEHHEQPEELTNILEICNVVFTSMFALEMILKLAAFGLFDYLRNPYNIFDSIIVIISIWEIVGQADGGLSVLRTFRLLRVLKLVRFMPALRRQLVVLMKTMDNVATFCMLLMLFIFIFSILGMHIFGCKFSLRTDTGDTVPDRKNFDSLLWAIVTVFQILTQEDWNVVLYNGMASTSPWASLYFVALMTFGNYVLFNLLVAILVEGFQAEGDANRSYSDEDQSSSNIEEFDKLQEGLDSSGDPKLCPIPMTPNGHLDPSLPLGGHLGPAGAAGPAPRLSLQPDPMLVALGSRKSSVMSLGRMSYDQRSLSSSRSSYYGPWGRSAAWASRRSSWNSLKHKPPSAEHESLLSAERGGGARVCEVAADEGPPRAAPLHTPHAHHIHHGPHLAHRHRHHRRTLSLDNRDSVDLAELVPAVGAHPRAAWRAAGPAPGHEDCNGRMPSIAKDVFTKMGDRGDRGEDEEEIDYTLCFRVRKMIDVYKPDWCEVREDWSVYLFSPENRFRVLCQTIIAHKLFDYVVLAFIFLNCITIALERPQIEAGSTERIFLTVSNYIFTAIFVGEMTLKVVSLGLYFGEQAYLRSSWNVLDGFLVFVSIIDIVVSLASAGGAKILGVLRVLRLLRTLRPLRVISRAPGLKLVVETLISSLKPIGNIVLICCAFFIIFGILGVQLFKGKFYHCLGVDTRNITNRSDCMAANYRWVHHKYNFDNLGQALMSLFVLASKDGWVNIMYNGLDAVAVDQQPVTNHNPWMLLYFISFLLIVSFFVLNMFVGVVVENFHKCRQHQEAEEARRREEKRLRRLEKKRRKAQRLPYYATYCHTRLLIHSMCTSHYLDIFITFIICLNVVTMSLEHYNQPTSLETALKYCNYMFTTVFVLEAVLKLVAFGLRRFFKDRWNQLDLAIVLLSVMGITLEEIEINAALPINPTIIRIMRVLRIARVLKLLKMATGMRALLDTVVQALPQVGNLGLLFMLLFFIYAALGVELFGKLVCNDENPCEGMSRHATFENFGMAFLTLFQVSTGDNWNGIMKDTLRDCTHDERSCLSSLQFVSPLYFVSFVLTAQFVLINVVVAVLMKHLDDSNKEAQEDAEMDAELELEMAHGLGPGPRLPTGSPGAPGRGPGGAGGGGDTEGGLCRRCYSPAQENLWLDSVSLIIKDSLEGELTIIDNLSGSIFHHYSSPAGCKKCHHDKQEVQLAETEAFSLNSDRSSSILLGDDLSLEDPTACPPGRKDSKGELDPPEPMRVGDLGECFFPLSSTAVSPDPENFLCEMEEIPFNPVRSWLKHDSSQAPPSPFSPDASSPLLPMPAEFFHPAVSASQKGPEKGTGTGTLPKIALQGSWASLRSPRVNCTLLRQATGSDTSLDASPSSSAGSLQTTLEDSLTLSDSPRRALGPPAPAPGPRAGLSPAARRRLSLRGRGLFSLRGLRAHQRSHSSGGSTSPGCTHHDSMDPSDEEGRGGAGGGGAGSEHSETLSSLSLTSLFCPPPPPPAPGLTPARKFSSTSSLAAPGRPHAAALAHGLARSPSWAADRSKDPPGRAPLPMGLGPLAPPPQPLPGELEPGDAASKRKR
T1 sequence (O95180 whole entry): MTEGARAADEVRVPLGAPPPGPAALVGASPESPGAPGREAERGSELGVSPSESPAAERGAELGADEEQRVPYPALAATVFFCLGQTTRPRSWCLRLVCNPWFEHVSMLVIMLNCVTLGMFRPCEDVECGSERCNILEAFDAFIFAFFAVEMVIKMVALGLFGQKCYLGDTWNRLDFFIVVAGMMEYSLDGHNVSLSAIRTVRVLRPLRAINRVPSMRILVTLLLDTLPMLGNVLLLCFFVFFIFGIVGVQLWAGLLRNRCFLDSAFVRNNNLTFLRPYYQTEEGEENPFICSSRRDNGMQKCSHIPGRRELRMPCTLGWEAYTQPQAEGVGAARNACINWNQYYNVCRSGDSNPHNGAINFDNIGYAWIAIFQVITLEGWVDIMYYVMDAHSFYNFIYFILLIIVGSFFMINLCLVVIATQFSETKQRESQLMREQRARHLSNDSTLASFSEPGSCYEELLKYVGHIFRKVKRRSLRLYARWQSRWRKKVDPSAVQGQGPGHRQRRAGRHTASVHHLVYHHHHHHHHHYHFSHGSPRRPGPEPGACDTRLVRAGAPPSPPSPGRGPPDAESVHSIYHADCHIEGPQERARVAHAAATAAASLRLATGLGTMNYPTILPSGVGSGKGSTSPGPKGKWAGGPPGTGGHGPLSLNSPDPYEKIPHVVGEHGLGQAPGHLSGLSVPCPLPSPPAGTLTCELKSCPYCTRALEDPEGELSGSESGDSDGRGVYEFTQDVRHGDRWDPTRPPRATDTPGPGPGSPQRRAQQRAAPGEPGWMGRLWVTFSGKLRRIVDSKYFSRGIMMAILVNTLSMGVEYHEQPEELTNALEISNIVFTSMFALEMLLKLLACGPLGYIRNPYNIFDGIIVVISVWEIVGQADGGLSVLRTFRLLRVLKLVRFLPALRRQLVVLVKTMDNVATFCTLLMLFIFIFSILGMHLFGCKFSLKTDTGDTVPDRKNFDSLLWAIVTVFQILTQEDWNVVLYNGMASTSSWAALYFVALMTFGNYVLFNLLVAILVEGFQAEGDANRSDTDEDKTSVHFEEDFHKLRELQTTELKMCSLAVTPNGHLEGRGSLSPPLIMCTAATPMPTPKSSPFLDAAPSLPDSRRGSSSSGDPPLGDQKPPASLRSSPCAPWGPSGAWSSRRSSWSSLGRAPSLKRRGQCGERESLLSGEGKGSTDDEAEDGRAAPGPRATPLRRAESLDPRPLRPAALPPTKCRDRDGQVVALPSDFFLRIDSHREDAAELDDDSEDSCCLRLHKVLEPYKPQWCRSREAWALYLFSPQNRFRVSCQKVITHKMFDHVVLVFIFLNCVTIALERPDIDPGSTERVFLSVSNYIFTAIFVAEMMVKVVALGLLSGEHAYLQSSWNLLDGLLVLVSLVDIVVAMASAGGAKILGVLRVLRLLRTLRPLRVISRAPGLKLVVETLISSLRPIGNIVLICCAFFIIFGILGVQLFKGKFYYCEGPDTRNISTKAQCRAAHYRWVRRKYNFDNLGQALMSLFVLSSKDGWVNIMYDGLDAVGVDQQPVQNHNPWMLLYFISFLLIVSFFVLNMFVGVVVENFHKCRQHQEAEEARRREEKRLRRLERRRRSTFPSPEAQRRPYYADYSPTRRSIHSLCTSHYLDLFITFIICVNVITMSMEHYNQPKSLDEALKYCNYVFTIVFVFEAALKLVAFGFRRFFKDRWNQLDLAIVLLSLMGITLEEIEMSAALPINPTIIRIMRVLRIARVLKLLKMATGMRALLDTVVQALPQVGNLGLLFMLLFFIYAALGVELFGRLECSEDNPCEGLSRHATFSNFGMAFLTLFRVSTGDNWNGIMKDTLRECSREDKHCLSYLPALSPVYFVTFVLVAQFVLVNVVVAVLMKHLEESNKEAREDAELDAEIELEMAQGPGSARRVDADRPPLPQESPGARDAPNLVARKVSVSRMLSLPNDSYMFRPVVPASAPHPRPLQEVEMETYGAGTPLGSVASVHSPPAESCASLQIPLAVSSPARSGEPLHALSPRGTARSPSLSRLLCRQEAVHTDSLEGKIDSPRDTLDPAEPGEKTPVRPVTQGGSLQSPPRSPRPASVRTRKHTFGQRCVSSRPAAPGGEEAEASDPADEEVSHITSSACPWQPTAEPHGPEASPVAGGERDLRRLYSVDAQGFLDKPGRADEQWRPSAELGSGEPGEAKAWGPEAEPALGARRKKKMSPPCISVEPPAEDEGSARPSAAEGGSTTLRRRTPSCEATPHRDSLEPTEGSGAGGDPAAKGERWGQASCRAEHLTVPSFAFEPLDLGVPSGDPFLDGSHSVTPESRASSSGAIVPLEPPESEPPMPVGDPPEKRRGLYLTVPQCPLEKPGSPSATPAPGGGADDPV

Structure (SMILES) | Kd [1] [nM] | Kd [2] [nM] | Kd [3] [nM] | anti-hyperalgesic activity in the spinal nerve ligation model of neuropathic pain [4] | selective for T-type over L-type channels [5]
Cc1c(C(=O)N2CCN(c3cc(C(F)(F)F)cc(C(F)(F)F)c3)CC2)sc2ncn(CC(=O)Nc3ccccc3)c(=O)c12 [Compound 53, 2-(6-(4-(3,5-bis(trifluoromethyl)phenyl)piperazine-1-carbonyl)-5-methyl-4-oxothieno[2,3-d]pyrimidin-3(4H)-yl)-N-phenylacetamide] | 1040 | 190 | 580 |  | 
Cc1c(C(=O)N2CCN(c3ccccc3)CC2)sc2ncn(CC(=O)Nc3cc(F)cc(F)c3)c(=O)c12 [Compound 55, 2-(6-(4-phenylpiperazine-1-carbonyl)-5-methyl-4-oxothieno[2,3-d]pyrimidin-3(4H)-yl)-N-(3,5-difluorophenyl)acetamide] | 380 | 240 | > 950 |  | 
Cc1c(C(=O)N2CCN(c3ccccc3F)CC2)sc2ncn(CC(=O)Nc3cccc(C(F)(F)F)c3)c(=O)c12 [Compound 62, 2-(6-(4-(2-fluorophenyl)piperazine-1-carbonyl)-5-methyl-4-oxothieno[2,3-d]pyrimidin-3(4H)-yl)-N-(3-(trifluoromethyl)phenyl)acetamide] | 800 | 290 | 340 |  | 
Cc1c(C(=O)N2CCN(c3ccccc3F)CC2)sc2ncn(CC(=O)Nc3cc(C(F)(F)F)cc(C(F)(F)F)c3)c(=O)c12 [Compound 64, N-(3,5-bis(trifluoromethyl)phenyl)-2-(6-(4-(2-fluorophenyl)piperazine-1-carbonyl)-5-methyl-4-oxothieno[2,3-d]pyrimidin-3(4H)-yl)acetamide] | 700 | 200 | 80 |  | 
CNC(=O)c1sc2ncn(CC(=O)Nc3cc(C(F)(F)F)cc(C(F)(F)F)c3)c(=O)c2c1C [Compound 66, 3-(2-(3,5-bis(trifluoromethyl)phenylamino)-2-oxoethyl)-N,5-dimethyl-4-oxo-3,4-dihydrothieno[2,3-d]pyrimidine-6-carboxamide] | 7590 | 350 | 1040 |  | 
Cc1c(C(=O)N2CCCCC2)sc2ncn(CC(=O)Nc3cc(C(F)(F)F)cc(C(F)(F)F)c3)c(=O)c12 [Compound 69, N-(3,5-bis(trifluoromethyl)phenyl)-2-(5-methyl-4-oxo-6-(piperidine-1-carbonyl)thieno[2,3-d]pyrimidin-3(4H)-yl)acetamide] | 2730 | 230 | 710 |  | 
COCC(=O)O[C@]1(CCN(C)CCCc2nc3ccccc3[nH]2)CCc2cc(F)ccc2[C@@H]1C(C)C [Mibefradil] |  |  |  | anti-hyperalgesic activity | 10-30 fold
CCC1(C)CC(=O)NC1=O (stereo not drawn) [ethosuximide] |  |  |  | anti-hyperalgesic activity | 

Further lines, with some results ahead:

Kd [1] [nM] | Kd [2] [nM] | Kd [3] [nM] | Structure (SMILES) | anti-hyperalgesic activity in the spinal nerve ligation model of neuropathic pain [4] | selective for T-type over L-type channels [5]
350 | 16500 | 5130 | Cc1c(C(=O)N2CCN(c3ccccc3)CC2)sc2ncn(C(C)C(=O)NC3CCCCC3)c(=O)c12 (stereo not drawn) [Compound 33, N-cyclohexyl-2-(5-methyl-4-oxo-6-(4-phenylpiperazine-1-carbonyl)thieno[2,3-d]pyrimidin-3(4H)-yl)propanamide] |  | 
170 | 300 | 3290 | Cc1c(C(=O)N2CCN(c3cccc(Cl)c3)CC2)sc2ncn(CC(=O)NC3CCCC3)c(=O)c12 [Compound 37, 2-(6-(4-(3-chlorophenyl)piperazine-1-carbonyl)-5-methyl-4-oxothieno[2,3-d]pyrimidin-3(4H)-yl)-N-cyclopentylacetamide] |  | 
100 | 100 | 2140 | Cc1c(C(=O)N2CCN(c3ccc(Cl)c(C(F)(F)F)c3)CC2)sc2ncn(CC(=O)NC3CCCC3)c(=O)c12 [Compound 38, 2-(6-(4-(4-chloro-3-(trifluoromethyl)phenyl)piperazine-1-carbonyl)-5-methyl-4-oxothieno[2,3-d]pyrimidin-3(4H)-yl)-N-cyclopentylacetamide] |  | 
280 | 570 | 3840 | Cc1c(C(=O)N2CCN(c3ccc(Cl)cc3)CC2)sc2ncn(CC(=O)NC3CCCC3)c(=O)c12 [Compound 42, 2-(6-(4-(4-chlorophenyl)piperazine-1-carbonyl)-5-methyl-4-oxothieno[2,3-d]pyrimidin-3(4H)-yl)-N-cyclopentylacetamide] |  | 
350 | 1010 | 8790 | Cc1c(C(=O)N2CCN(c3ccccc3)CC2)sc2ncn(CC(=O)Nc3ccccc3)c(=O)c12 [Compound 52, 2-(5-methyl-4-oxo-6-(4-phenylpiperazine-1-carbonyl)thieno[2,3-d]pyrimidin-3(4H)-yl)-N-phenylacetamide] |  | 
220 | 1460 | 8800 | Cc1c(C(=O)N2CCN(c3cccc(Cl)c3)CC2)sc2ncn(CC(=O)N3CCCC3)c(=O)c12 [Compound 73, 6-(4-(3-chlorophenyl)piperazine-1-carbonyl)-5-methyl-3-(2-oxo-2-(pyrrolidin-1-yl)ethyl)thieno[2,3-d]pyrimidin-4(3H)-one] |  | 
330 | 9900 | 1380 | Cc1c(C(=O)N2CCN(c3ccc(Cl)c(Cl)c3)CC2)sc2ncn(CC(=O)N3CCCC3)c(=O)c12 [Compound 135, 6-(4-(3,4-dichlorophenyl)piperazine-1-carbonyl)-5-methyl-3-(2-oxo-2-(pyrrolidin-1-yl)ethyl)thieno[2,3-d]pyri-midin-4(3H)-one] |  | 
180 | 360 | 4990 | Cc1c(C(=O)N2CCN(c3cccc(Cl)c3)CC2)sc2ncn(CC(=O)Nc3ccc(F)cc3F)c(=O)c12 [Compound 140, 2-(6-(4-(3-chlorophenyl)piperazine-1-carbonyl)-5-methyl-4-oxothieno[2,3-d]pyrimidin-3(4H)-yl)-N-(2,4 difluorophenyl)acetamide] |  | 
